# Source: patent US20150125515A1, “NOVEL SP-B & SP-C PEPTIDES, SYNTHETIC LUNG SURFACTANTS, AND USE THEREOF” (UNIVERSITY OF ROCHESTER, priority 2012, published 2015)
# Tests used:
# [1] = Adsorption of surfactant compositions to the air-water interface (surface pressure vs time, Wilhelmy method); type: physicochemical; conditions: Means ± SEM
# Description: (§1) Surface activity of synthetic peptide/lipid surfactant compositions was assessed by either or both of the following methods: (1) measurement of the adsorption of surfactant compositions to the air-water interface as a function of time, and (2) measurement of overall dynamic surface activity on a pulsating bubble surfactometer (general methodological details of these two experimental techniques are described by Notter, Lung Surfactants: Basic Science and Clinical Applications, Marcel Dekker, Inc, New York (2000), which is hereby incorporated by reference in its entirety).
# In adsorption studies, a given surfactant mixture was injected at time zero beneath the surface of a stirred surfactant-free subphase, and surface pressure (defined as surface tension lowering below that of the pure subphase) was measured as a function of time from the force on a hanging platinum slide (“Wilhelmy” method). By definition, higher surface pressure corresponds to lower surface tension (Notter, Lung Surfactants: Basic Science and Clinical Applications, Marcel Dekker, Inc, New York (2000)).
# [2] = Pulsating bubble surfactometer, minimum surface tension; type: physicochemical; conditions: Table 8, 37° C, 20 cycles/min, 50% area compression, 2.5 mg/ml phospholipid, Means ± SEM, N = 4
# Description: as §1
# In pulsating bubble studies, surface tension at minimum bubble radius (minimum surface tension) was determined as a function of time during pulsation on a bubble surfactometer (General Transco, Largo, Fla.) (37° C., 20 cycles/min, 50% area compression). A tiny air bubble was formed and pulsated between maximum and minimum radii of 0.55 and 0.4 mm, respectively, and the pressure drop across the air-water interface of the bubble was measured with a precision transducer. Minimum surface tension was calculated from the measured pressure drop at minimum radius (0.4 mm) from the Laplace equation (Enhorning, “Pulsating Bubble Technique for Evaluation of Pulmonary Surfactant,” J Appl Physiol 43:198-203 (1977); Hall et al., “Approximations in the Measurement of Surface Tension with the Oscillating Bubble Surfactometer,” J Appl Physiol 75:468-477 (1993), each of which is hereby incorporated by reference in its entirety). Measurements of overall surface activity on this instrument reflect the combined effects of adsorption and dynamic film compression at a cycling rate (20 cycles/min), temperature (37° C.), and area compression (50% compression from maximum to minimum area) relevant for the mammalian lungs in vivo (Notter, Lung Surfactants: Basic Science and Clinical Applications, Marcel Dekker, Inc, New York (2000); Enhorning, “Pulsating Bubble Technique for Evaluation of Pulmonary Surfactant,” J Appl Physiol 43:198-203 (1977); Notter et al., “Pulmonary Surfactant: Physical Chemistry, Physiology and Replacement,” Rev Chem Eng 13:1-118 (1997), each of which is hereby incorporated by reference in its entirety).
# [3] = system: ventilated rabbits with ARDS induced by saline lavage; test: Saline-lavage ventilated rabbit model of ARDS: arterial oxygenation and dynamic compliance; type: in vivo, New Zealand white rabbits; conditions: intratracheal 100 mg/kg
# Description: Saline lavage produces surfactant deficiency, alveolar collapse and lung edema in ventilated rats and rabbits, and is a useful experimental model for human ARDS. A saline-lavage rabbit model for lung injury was thus used to compare synthetic surfactants, with lipids only as negative control. Restoration of lung function was assessed by serial monitoring of gas exchange and lung mechanics. Physiological activity results for selected synthetic SP-B peptides are shown below, and physiological activity results for selected synthetic SP-C peptides are included in following Example 8.
# Animal experiments were performed following established protocols approved by the Animal Care and Use Committee at the Los Angeles Biomedical Research Institute at Harbor-UCLA Medical Center. […] In brief, experimental animals were commercially available young adult male New Zealand white rabbits whose respiratory function was followed during mechanical ventilation by measurements of serial arterial blood gases and pulmonary compliance over the first 2 hours after a standardized saline lavage protocol. For this timeframe of study, the model reflected a relatively pure state of surfactant insufficiency in animals with mature lungs. Saline lavage administration was performed after induction of anesthesia, insertion of a venous line in a marginal ear vein, endotracheal intubation and initiation of mechanical ventilation, muscle paralysis, and insertion of a carotid arterial line. Heart rate, arterial blood pressure and rectal temperature were measured continuously. After stabilization on the ventilator, saline lavage was performed with repeated intratracheal instillation and removal of 30 mL of normal saline until the PaO2 dropped below 100 mm Hg (average 3 lavages). Maintenance fluid was provided by a continuous infusion of Lactated Ringer's solution at a rate of 10 ml/kg/h. Edema fluid appearing in the trachea was removed by suctioning. When the PaO2 was stable at less than 100 mm Hg in saline lavaged animals, an experimental or control surfactant mixture was instilled into the trachea at a dose of 100 mg/kg body weight and a concentration of 35 mg/mL. The rabbits were ventilated using a Harvard volume-controlled animal ventilator (tidal volume 7.5 ml/kg, a positive end-expiratory pressure [PEEP] of 3 cm H2O, an inspiratory/expiratory ratio of 1:2, 100% oxygen, and a respiratory rate to maintain a PaCO2 at ˜40 mm Hg). Airway flow and pressures and tidal volume were monitored continuously with a pneumotachograph connected to the endotracheal tube and a pneumotach system. Arterial pH and blood gases were done every 15 minutes. Dynamic lung compliance was calculated by dividing tidal volume/kg body weight by changes in airway pressure (peak inspiratory pressure minus positive end-expiratory pressure) (mL/kg/cmH2O). Animals were sacrificed 2 h after surfactant administration with an overdose of pentobarbital. End-points are pulmonary gas exchange (arterial pH, PaCO2 and PaO2) and pulmonary mechanics (dynamic compliance, postmortem pressure-volume curves). Each treatment group consisted of n=4-9 animals.
# The in vivo pulmonary activity of reduced MB DATK and SMB DATK was investigated in comparison with oxidized SMB and MB (positive controls) and lipids alone (negative control) over 120 min, following intratracheal instillation of these surfactants into ventilated rabbits with ARDS induced by saline lavage. Oxidized SMB and MB were used as positive controls, because these SP-B mimics previously indicated high in vivo surfactant activities equal to those of native, full-length porcine SP-B in ventilated rats with ARDS (Walther et al., “Critical Structural and Functional Roles for the N-terminal Insertion Sequence in Surfactant Protein B Analogs,” PLoS One 5:e8672 (2010), which is hereby incorporated by reference in its entirety). […]
# [4] = storage in organic solvent or in surfactant lipids for 4-6 weeks; Walther et al. 2007; cited from earlier work
# [5] = synthetic peptide; Walther et al. 2000; cited from earlier work
# [6] = Table 7, 0.0625 mg phospholipid/ml of subphase, normal saline pH 7.0, 37 ± 0.5° C, N = 4
# [7] = Table 9, phospholipase-resistant lipids, 0.0625 mg phospholipid/ml, n = 4
# [8] = Table 13, SP-B plus SP-C peptide (1.5%:1.5%) with resistant lipids or glycerophospholipids, 0.0625 mg phospholipid/ml, n = 4
compound,measurement,setting,value
"CCCCCCCCCCCCCCCCOCC(COP(=O)(O)CCC[N+](C)(C)C)OCCCCCCCCCCCCCCCC (racemic) [DEPN-8, [(±)-trimethyl(3-phosphonopropyl)ammonium, mono(2,3-bis(hexadecyloxy)propyl ester]]",Adsorption Surface Pressure at time 0 min,[1]; [6],0 ± 0.0 mN/m
same,Adsorption Surface Pressure at time 1 min,[1]; [6],12.9 ± 2.9 mN/m
same,Adsorption Surface Pressure at time 2 min,[1]; [6],16.0 ± 1.6 mN/m
same,Adsorption Surface Pressure at time 5 min,[1]; [6],17.8 ± 1.7 mN/m
same,Adsorption Surface Pressure at time 10 min,[1]; [6],18.0 ± 1.7 mN/m
same,Adsorption Surface Pressure at time 15 min,[1]; [6],18.2 ± 1.7 mN/m
same,Adsorption Surface Pressure at time 0 min,[1]; [7],0.0 ± 0.0 mN/m
same,Adsorption Surface Pressure at time 1 min,[1]; [7],12.9 ± 2.9 mN/m
same,Adsorption Surface Pressure at time 2 min,[1]; [7],16.0 ± 1.6 mN/m
same,Adsorption Surface Pressure at time 5 min,[1]; [7],17.8 ± 1.7 mN/m
same,Adsorption Surface Pressure at time 10 min,[1]; [7],18.0 ± 1.7 mN/m
same,Adsorption Surface Pressure at time 15 min,[1]; [7],18.2 ± 1.7 mN/m
same,Adsorption Surface Pressure at time 0 min,[1]; [8],0.0 ± 0.0 mN/m
same,Adsorption Surface Pressure at time 1 min,[1]; [8],12.9 ± 2.9 mN/m
same,Adsorption Surface Pressure at time 2 min,[1]; [8],16.0 ± 1.6 mN/m
same,Adsorption Surface Pressure at time 5 min,[1]; [8],17.8 ± 1.7 mN/m
same,Adsorption Surface Pressure at time 10 min,[1]; [8],18.0 ± 1.7 mN/m
same,Adsorption Surface Pressure at time 15 min,[1]; [8],18.2 ± 1.7 mN/m
same,Minimum Surface Tension at 0.25 min of bubble pulsation,[2]; 0.25 min,31.2 ± 2.0 mN/m
same,Minimum Surface Tension at 0.5 min of bubble pulsation,[2]; 0.5 min,27.1 ± 1.8 mN/m
same,Minimum Surface Tension at 1 min of bubble pulsation,[2]; 1 min,21.2 ± 1.5 mN/m
same,Minimum Surface Tension at 2 min of bubble pulsation,[2]; 2 min,14.6 ± 1.2 mN/m
same,Minimum Surface Tension at 5 min of bubble pulsation,[2]; 5 min,7.8 ± 1.7 mN/m
same,Minimum Surface Tension at 10 min of bubble pulsation,[2]; 10 min,1.5 ± 1.0 mN/m
same,Minimum Surface Tension at 15 min of bubble pulsation,[2]; 15 min,<1 mN/m
GIPFFPVHLKRLLIVVVVVVLIVVVIVGALLMGL [SP-Cff],Oxygenation and lung compliance after instillation (FIG. 2),"[3]; SP-C mimics 3.0% by weight in 5:3:2 (weight ratio) DPPC:POPC:POPG, PBS pH 7.4, 35 mg/mL",much less so
same,relative order of pulmonary activity in terms of oxygenation and lung compliance,[3]; SP-C mimics 3.0% by weight in 5:3:2 DPPC:POPC:POPG,SP-C33˜SP-Css ion-lock>SP-Cff>Lipids alone
same,conformational stability upon storage (FTIR),[4],self-associates to form β-sheet aggregates
same,solubility in chloroform-methanol,[5],low solubility
